Structures can show the parent of a compound that is named as a salt. Where two headings read alike, the source gives them in different places.
Tests used:
Recombinant JAK1 = molecular target: T1, Recombinant JAK1 (Homo sapiens, UniProt P23458); test: JAK biochemical assay (LANCE Ultra TR-FRET), JAK1; details: recombinant JAK1, TR-FRET; read-out: Biochemical Assay (μM) JAK1
T1 construct: purchased Carna Biosciences
How it was run: (§1)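 % inhibition relative to vehicle was derived from TR-FRET signal proportional to ULight-substrate phosphorylation. Reactions used recombinant kinase in HEPES pH 7.5 buffer containing EGTA, MgCl2, DTT and Tween-20.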

Recombinant JAK2 = molecular target: T2, Recombinant JAK2 (Homo sapiens, UniProt O60674); test: JAK biochemical assay (LANCE Ultra TR-FRET), JAK2; details: recombinant JAK2, TR-FRET; read-out: Biochemical Assay (μM) JAK2
T2 construct: purchased Carna Biosciences
T2 sequence (O60674 whole entry): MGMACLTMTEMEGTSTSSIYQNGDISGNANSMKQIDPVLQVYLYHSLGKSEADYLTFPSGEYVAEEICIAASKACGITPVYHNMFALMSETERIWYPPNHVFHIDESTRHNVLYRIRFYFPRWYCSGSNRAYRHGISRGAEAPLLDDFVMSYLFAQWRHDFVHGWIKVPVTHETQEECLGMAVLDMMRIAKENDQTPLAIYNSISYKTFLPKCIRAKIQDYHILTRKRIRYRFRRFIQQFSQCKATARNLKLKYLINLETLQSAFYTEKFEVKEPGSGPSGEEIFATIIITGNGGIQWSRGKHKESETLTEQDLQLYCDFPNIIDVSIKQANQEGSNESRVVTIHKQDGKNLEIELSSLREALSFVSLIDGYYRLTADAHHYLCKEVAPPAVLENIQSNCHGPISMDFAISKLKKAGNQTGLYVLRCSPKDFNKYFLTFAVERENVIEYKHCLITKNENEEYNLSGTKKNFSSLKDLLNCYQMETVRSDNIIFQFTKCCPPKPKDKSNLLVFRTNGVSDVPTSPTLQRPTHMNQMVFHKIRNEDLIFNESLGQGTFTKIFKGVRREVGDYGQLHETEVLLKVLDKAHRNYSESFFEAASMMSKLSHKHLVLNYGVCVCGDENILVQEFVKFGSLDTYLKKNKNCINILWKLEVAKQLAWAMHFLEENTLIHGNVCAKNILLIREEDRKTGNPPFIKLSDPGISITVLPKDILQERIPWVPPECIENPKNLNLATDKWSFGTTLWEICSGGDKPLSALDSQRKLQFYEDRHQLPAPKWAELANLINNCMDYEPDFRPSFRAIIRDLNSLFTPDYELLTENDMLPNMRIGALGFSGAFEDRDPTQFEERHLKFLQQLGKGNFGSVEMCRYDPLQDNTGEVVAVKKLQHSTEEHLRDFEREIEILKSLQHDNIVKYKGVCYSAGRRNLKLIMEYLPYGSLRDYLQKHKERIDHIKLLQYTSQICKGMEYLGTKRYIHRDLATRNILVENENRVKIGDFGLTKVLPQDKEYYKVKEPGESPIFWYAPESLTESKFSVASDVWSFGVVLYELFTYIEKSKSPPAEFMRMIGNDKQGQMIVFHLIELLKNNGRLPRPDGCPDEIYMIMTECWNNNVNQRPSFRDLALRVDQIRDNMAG
How it was run: as §1

Recombinant JAK3 = molecular target: T3, Recombinant JAK3 (Homo sapiens, UniProt P52333); test: JAK biochemical assay (LANCE Ultra TR-FRET), JAK3; details: recombinant JAK3, TR-FRET; read-out: Biochemical Assay (μM) JAK3
T3 construct: purchased Carna Biosciences
T3 sequence (P52333 1-1124): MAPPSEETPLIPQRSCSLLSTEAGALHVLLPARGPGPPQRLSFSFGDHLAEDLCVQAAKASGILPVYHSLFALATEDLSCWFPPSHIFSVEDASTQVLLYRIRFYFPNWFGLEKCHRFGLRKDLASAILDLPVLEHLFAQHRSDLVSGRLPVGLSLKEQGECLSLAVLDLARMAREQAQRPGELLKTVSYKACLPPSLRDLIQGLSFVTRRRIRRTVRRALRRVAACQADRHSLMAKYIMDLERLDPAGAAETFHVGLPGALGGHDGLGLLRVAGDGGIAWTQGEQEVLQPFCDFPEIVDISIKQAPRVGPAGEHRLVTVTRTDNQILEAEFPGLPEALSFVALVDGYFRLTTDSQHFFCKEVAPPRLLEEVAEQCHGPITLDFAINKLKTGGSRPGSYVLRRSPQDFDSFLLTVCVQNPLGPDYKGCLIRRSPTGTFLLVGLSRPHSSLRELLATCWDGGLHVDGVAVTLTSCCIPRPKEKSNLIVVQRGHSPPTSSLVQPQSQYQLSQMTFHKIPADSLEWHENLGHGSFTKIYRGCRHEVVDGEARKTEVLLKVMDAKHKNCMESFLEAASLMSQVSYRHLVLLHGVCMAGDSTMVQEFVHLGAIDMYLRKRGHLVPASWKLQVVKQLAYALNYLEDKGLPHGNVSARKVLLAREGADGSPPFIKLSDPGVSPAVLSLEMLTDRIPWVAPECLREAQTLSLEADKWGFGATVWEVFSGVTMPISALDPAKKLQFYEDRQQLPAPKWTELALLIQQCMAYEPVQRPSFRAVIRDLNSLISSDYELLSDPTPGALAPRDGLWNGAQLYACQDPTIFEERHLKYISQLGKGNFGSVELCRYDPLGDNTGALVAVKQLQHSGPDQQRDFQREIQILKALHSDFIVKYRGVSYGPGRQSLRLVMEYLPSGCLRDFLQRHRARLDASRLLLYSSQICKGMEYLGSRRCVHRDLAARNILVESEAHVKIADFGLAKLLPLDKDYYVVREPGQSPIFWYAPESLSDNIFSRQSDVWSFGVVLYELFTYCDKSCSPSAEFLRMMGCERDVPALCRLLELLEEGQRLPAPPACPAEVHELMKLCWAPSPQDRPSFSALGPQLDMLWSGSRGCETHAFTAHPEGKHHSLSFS
How it was run: as §1

Recombinant TYK2 = molecular target: T4, Recombinant TYK2 (Homo sapiens, UniProt P29597); test: JAK biochemical assay (LANCE Ultra TR-FRET), TYK2; details: recombinant TYK2, TR-FRET; read-out: Biochemical Assay (μM) TYK2
T4 construct: purchased Carna Biosciences
T4 sequence (P29597 whole entry): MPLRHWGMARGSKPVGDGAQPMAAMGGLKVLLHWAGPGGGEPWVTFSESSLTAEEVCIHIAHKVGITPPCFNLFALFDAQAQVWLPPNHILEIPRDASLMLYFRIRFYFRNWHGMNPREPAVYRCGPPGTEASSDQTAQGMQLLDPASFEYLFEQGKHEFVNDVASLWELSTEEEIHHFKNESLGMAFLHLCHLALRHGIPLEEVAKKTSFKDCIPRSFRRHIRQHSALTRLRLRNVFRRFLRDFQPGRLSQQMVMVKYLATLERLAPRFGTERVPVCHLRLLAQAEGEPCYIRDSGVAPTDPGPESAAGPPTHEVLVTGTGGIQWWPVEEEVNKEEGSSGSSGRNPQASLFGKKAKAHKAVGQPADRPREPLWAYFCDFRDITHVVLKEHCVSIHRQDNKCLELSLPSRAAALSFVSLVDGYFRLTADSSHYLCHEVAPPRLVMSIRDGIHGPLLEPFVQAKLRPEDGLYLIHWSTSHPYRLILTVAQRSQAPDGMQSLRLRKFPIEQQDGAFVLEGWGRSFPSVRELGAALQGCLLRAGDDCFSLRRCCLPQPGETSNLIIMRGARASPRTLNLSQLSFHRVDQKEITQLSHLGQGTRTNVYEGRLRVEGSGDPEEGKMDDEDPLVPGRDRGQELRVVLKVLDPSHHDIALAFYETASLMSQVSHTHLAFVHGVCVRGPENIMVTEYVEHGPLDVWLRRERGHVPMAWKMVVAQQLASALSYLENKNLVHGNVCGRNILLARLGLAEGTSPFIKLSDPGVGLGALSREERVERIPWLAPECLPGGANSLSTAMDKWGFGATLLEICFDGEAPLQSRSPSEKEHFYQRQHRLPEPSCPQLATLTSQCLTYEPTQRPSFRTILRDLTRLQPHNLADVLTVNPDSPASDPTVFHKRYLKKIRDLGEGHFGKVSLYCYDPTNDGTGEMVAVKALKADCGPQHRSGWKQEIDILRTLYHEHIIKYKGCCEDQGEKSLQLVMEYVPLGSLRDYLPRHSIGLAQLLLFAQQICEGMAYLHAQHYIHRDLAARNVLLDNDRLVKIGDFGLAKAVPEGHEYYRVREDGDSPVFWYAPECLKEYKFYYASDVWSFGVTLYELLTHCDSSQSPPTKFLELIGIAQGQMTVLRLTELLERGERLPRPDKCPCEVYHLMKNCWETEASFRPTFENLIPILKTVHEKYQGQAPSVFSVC
How it was run: as §1

[1] = system: STAT3 phosphorylation by IL-6 in TF-1 cells; test: JAK cellular assay: STAT3 phosphorylation by IL-6 in TF-1 cells (HTRF); format: cell-based; details: IL-6 30 ng/ml, pSTAT3 HTRF, read-out: Cell Based Assay (μM) TF-1/IL-6/pSTAT3
Description: TF-1 cells were starved overnight in OptiMEM medium with 0.5% charcoal stripped fetal bovine serum, 0.1 mM nonessential amino acids (NEAA), 1 mM sodium pyruvate and without phenol red in CO2 incubator maintained at 37° c. Next day, cells were resuspended in RPMI without phenol red and dispensed into a 96 well plate at a final cell density of 1,20,000 cells per well. Compounds were diluted in DMSO and added to cells and incubated for 30 minutes in CO2 incubator maintained at 37° c. Final DMSO concentration in cell based assay was 0.2%. Human recombinant cytokines, IL-6 (30 ng/ml) and GMCSF (5 ng/ml) were added to the plate containing cells along with compound and incubated for 20 minutes with gentle tapping at every 5 minutes once. Compound mediated effects on STAT3 and STAT5 phosphorylation was measured in the lysates prepared by using CISBIO pSTAT3 and pSTAT5 detection kits by HTRF method. Background signal obtained from cells which were not activated with cytokines, was subtracted from vehicle controls and compound treated wells.

T1 sequence (P23458 whole entry): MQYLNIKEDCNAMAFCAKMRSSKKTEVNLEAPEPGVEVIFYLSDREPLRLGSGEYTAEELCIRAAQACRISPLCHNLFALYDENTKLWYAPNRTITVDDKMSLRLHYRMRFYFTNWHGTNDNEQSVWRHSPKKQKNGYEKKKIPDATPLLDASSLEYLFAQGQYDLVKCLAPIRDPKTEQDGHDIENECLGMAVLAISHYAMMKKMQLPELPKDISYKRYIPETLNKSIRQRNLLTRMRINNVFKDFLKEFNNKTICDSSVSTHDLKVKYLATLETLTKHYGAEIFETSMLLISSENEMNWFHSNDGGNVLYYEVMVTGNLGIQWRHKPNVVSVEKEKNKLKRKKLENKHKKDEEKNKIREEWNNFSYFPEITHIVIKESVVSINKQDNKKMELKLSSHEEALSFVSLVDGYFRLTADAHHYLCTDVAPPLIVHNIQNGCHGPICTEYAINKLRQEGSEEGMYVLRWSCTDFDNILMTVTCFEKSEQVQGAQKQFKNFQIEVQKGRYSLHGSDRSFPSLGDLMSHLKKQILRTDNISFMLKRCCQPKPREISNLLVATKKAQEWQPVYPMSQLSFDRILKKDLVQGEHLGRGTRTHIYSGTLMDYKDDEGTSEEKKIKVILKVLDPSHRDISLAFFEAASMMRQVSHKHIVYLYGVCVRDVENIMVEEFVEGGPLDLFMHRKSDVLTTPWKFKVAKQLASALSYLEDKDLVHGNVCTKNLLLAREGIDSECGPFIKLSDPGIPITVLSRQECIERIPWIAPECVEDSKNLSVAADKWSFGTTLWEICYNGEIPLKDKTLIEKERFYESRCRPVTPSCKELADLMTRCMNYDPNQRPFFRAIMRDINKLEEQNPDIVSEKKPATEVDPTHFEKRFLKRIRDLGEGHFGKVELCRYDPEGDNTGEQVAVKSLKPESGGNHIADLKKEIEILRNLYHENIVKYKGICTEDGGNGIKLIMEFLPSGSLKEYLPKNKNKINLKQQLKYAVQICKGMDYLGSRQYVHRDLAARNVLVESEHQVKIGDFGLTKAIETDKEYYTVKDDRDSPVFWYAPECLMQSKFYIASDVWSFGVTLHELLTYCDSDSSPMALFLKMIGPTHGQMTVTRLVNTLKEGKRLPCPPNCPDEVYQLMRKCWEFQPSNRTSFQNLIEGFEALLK

| Compound | IC50 (Recombinant JAK1) [µM] | IC50 (Recombinant JAK2) [µM] | IC50 (Recombinant JAK3) [µM] | IC50 (Recombinant TYK2) [µM] | IC50 ([1]; Homo sapiens, TF-1, TF-1 cells) [µM] | IC50 ([1]; TF-1 cells, hydrochloride) [µM] |
| --- | --- | --- | --- | --- | --- | --- |
| COCCC(C#N)NC(=O)n1cc(-c2ccnc3[nH]cnc23)cn1 (stereo not shown) [Example 1071, N-(1-cyano-3-methoxypropyl)-4-(3H-imidazo[4,5-b]pyridin-7-yl)-1H-pyrazole-1-carboxamide] | > 0.5 | > 0.5 | > 0.5 | > 0.5 | > 10 | – |
| N#CCc1ccc(-n2cc(-c3ccnc4[nH]cnc34)cn2)nc1 [Example 1082, 2-(6-(4-(3H-imidazo[4,5-b]pyridin-7-yl)-1H-pyrazol-1-yl)pyridin-3-yl)acetonitrile hydrochloride] | < 0.5 | < 0.5 | < 0.5 | – | – | > 1 |
| N#CC1CCCCC1NC(=O)n1cc(-c2ccnc3[nH]cnc23)cn1 (stereo not shown) [Example 1066, N-(2-cyanocyclohexyl)-4-(3H-imidazo[4,5-b]pyridin-7-yl)-1H-pyrazole-1-carboxamide] | – | > 0.5 | > 0.5 | > 0.5 | > 10 | – |
| N#CCC(NC(=O)n1cc(-c2ccnc3[nH]c(=O)[nH]c23)cn1)C1CCCC1 (stereo not shown) [Example 1039, N-(2-cyano-1-cyclopentylethyl)-4-(2,3-dihydro-2-oxo-1H-imidazo[4,5-b]pyridin-7-yl)-1H-pyrazole-1-carboxamide] | < 0.5 | < 0.5 | – | < 0.5 | 10 | – |
| CC(C)NCC[C@H](c1ccc(-n2cc(-c3ccnc4[nH]cnc34)cn2)nc1)C(F)(F)F [Example 1208, (R)-3-(6-(4-(3H-imidazo[4,5-b]pyridin-7-yl)-1H-pyrazol-1-yl)pyridin-3-yl)-4,4,4-trifluoro-N-isopropylbutan-1-amine] | – | 0.01 | 0.005 | > 0.5 | > 1 | – |
| CC(C)NCC(c1ccc(-n2cc(-c3ccnc4[nH]cnc34)cn2)nc1)C(F)(F)F (stereo not shown) [Example 1218, 2-(6-(4-(3H-imidazo[4,5-b]pyridin-7-yl)-1H-pyrazol-1-yl)pyridin-3-yl)-3,3,3-trifluoro-N-isopropylpropan-1-amine] | – | – | – | – | > 0.5 | – |
| O=C(NCC(F)(F)F)Nc1ccc(-c2ccnc3[nH]c(=O)[nH]c23)cn1 [Example 1005, 1-(2,2,2-trifluoroethyl)-3-(5-(2,3-dihydro-2-oxo-1H-imidazo[4,5-b]pyridin-7-yl)pyridin-2-yl)urea] | – | – | – | > 1 | > 10 | – |
| CC(=O)N1CCC(c2nc3c(-c4cnn(C(=O)NCC(F)(F)F)c4)ccnc3[nH]2)CC1 [Example 1098, 4-(2-(1-acetylpiperidin-4-yl)-3H-imidazo[4,5-b]pyridin-7-yl)-N-(2,2,2-trifluoroethyl)-1H-pyrazole-1-carboxamide] | > 1 | > 1 | > 1 | > 10 | – | – |
| CC(C)OC(c1ccc(-n2cc(-c3ccnc4[nH]cnc34)cn2)nc1)C(F)(F)F (stereo not shown) [Example 1124, 7-(1-(5-(2,2,2-trifluoro-1-isopropoxyethyl)pyridin-2-yl)-1H-pyrazol-4-yl)-3H-imidazo[4,5-b]pyridine] | > 1 | > 1 | > 0.5 | > 1 | – | – |
| COc1cc(-c2nc3c(-c4cnn(C5COCCC5C#N)c4)ccnc3[nH]2)ccc1Cl (stereo not shown) [Example 1097, 3-(4-(2-(4-chloro-3-methoxyphenyl)-3H-imidazo[4,5-b]pyridin-7-yl)-1H-pyrazol-1-yl)-tetrahydro-2H-pyran-4-carbonitrile] | > 10 | > 0.5 | > 10 | > 1 | – | – |
| O=C(NCC(F)(F)F)n1ccc(-c2ccnc3[nH]c(=O)[nH]c23)c1 [Example 1028, N-(2,2,2-trifluoroethyl)-3-(2,3-dihydro-2-oxo-1H-imidazo[4,5-b]pyridin-7-yl)-1H-pyrrole-1-carboxamide] | > 1 | > 1 | > 1 | > 1 | – | – |
| O=C(Cc1ccc(-n2cc(-c3ccnc4[nH]cnc34)cn2)nc1)NCC(F)(F)F [Example 1092, 2-(6-(4-(3H-imidazo[4,5-b]pyridin-7-yl)-1H-pyrazol-1-yl)pyridin-3-yl)-N-(2,2,2-trifluoroethyl)acetamide] | > 1 | > 1 | > 1 | > 1 | – | – |
| CCCS(=O)(=O)NC1CCN(C(=O)n2cc(-c3ccnc4[nH]cnc34)cn2)C1 (stereo not shown) [Example 1069, N-(1-(4-(3H-imidazo[4,5-b]pyridin-7-yl)-1H-pyrazole-1-carbonyl)pyrrolidin-3-yl)propane-1-sulfonamide] | > 10 | > 1 | > 0.5 | > 1 | – | – |
| CC(CCS(C)(=O)=O)c1ccc(-n2cc(-c3ccnc4[nH]cnc34)cn2)nc1 (stereo not shown) [Example 1163, 7-(1-(5-(4-(methylsulfonyl)butan-2-yl)pyridin-2-yl)-1H-pyrazol-4-yl)-3H-imidazo[4,5-b]pyridine] | > 0.5 | > 0.5 | > 0.5 | > 1 | – | – |
| N#CCC1CCN(C(=O)n2cc(-c3ccnc4[nH]c(=O)[nH]c34)cn2)C1 (stereo not shown) [Example 1057, 2-(1-(4-(2-oxo-2,3-dihydro-1H-imidazo[4,5-b]pyridin-7-yl)-1H-pyrazole-1-carbonyl)pyrrolidin-3-yl)acetonitrile] | > 0.5 | > 0.5 | > 0.5 | > 1 | – | – |
| N#CCC(=O)NCc1ccc(-n2cc(-c3ccnc4[nH]cnc34)cn2)nc1 [Example 1091, N-((6-(4-(3H-imidazo[4,5-b]pyridin-7-yl)-1H-pyrazol-1-yl)pyridin-3-yl)methyl)-2-cyanoacetamide] | > 0.5 | > 1 | > 0.5 | > 10 | – | – |
| CS(=O)(=O)CCNC(=O)N1CCN(c2ccnc3[nH]c(=O)[nH]c23)CC1 [Example 1013, 4-(2,3-dihydro-2-oxo-1H-imidazo[4,5-b]pyridin-7-yl)-N-(2-(methylsulfonyl)ethyl)piperazine-1-carboxamide] | > 10 | > 10 | > 10 | > 10 | – | – |
| N#CCNC(=O)c1ccc(-n2cc(-c3ccnc4[nH]cnc34)cn2)nc1 [Example 1088, 6-(4-(3H-imidazo[4,5-b]pyridin-7-yl)-1H-pyrazol-1-yl)-N-(cyanomethyl)pyridine-3-carboxamide] | > 1 | > 1 | > 1 | > 1 | – | – |
| O=C(Nc1ccncc1)Nc1ccc(-c2ccnc3[nH]c(=O)[nH]c23)cc1 [Example 1009, 1-(4-(2,3-dihydro-2-oxo-1H-imidazo[4,5-b]pyridin-7-yl)phenyl)-3-(pyridin-4-yl)urea] | > 10 | > 0.5 | > 1 | > 10 | – | – |
| CC(C)(CO)C(c1ccc(-n2cc(-c3ccnc4[nH]cnc34)cn2)nc1)C(F)(F)F (stereo not shown) [Example 1196, 3-(6-(4-(3H-imidazo[4,5-b]pyridin-7-yl)-1H-pyrazol-1-yl)pyridin-3-yl)-4,4,4-trifluoro-2,2-dimethylbutan-1-ol] | > 0.1 | > 0.5 | > 0.1 | > 1 | – | – |

From patent publication US12516056B2, “Compounds for inhibition of janus kinase 1” (MANKIND PHARMA LTD., priority 2019, dated 2026)
